Read-outs that look alike come from different tables or passages of the source.
How the values were obtained:
[1] = cited from earlier work
[2] = 60 mg of [14C]-edoxaban, cited from earlier work
[3] = test system: ex vivo thrombus formation; conditions: single 60 mg dose, healthy subjects; cited from earlier work
[4] = cited from earlier work; remark: listed apart in the source
[5] = concentrations of 0.2–5 µg/mL; cited from earlier work
[6] = cited from earlier work; remark: listed apart in the source
[7] = test system: plasma anti-FXa activity, PT, aPTT; conditions: cited from earlier work
OATP1B3 = conditions: read-out: IC50, inhibitory effect on OATP1B3; cited from earlier work
OATP1B1 = conditions: read-out: IC50, inhibitory effect on OATP1B1; cited from earlier work
CYP1A2 = assay: Induction of gene expression in human hepatocytes; conditions: data on file
OCT1 = conditions: read-out: IC50, inhibitory effect on OCT1; cited from earlier work
[8] = test system: PT, INR, aPTT, intrinsic FX activity, thrombin generation, anti-FXa; conditions: cited from earlier work
[9] = pH range of 3–7, decreases with increasing pH; cited from earlier work
[10] = cited from earlier work; remark: listed apart in the source
[11] = test system: multidrug resistance protein 1 (MDR1; P-gp); assay: Induction of gene expression in human hepatocytes; conditions: data on file
CYP3A4 = assay: Induction of gene expression in human hepatocytes; conditions: data on file
[12] = single dose, vs matched healthy controls; cited from earlier work
[13] = In vitro plasma protein binding
[14] = cited from earlier work; remark: listed apart in the source
CYPs = conditions: read-out: IC50, inhibitory effect on CYPs; cited from earlier work
[15] = cited from earlier work; remark: listed apart in the source
OAT1 [16] = conditions: cited from earlier work
[17] = test system: thrombin generation and platelet activation; conditions: postdose; cited from earlier work
OAT1 [18] = conditions: read-out: IC50, inhibitory effect on OAT1; cited from earlier work
[19] = cited from earlier work; remark: listed apart in the source
OCT2 = conditions: read-out: IC50, inhibitory effect on OCT2; cited from earlier work
P-gp = conditions: read-out: IC50, inhibitory effect on P-gp; cited from earlier work
[20] = cited from earlier work; remark: listed apart in the source
[21] = 60 mg daily for 4 days, day 1 and day 4
[22] = Mild impairment: CLCR ≥50–≤80 mL/min
[23] = Moderate impairment: CLCR ≥30–<50 mL/min
[24] = Severe impairment: CLCR <30 mL/min
[25] = coadministration of amiodarone, following 3 days of once daily dosing
[26] = coadministration of cyclosporine
[27] = coadministration of dronedarone
[28] = coadministration of erythromycin
[29] = coadministration of high-dose aspirin (325 mg)
[30] = coadministration of ketoconazole
[31] = coadministration of oral quinidine
[32] = coadministration of sustained-release verapamil
[33] = rifampin after 7 days of dosing

CN1CCc2nc(C(=O)N[C@@H]3C[C@@H](C(=O)N(C)C)CC[C@@H]3NC(=O)C(=O)Nc3ccc(Cl)cn3)sc2C1 [edoxaban]
safety assessed by bleeding events versus warfarin [1]: improved safety | efficacy versus warfarin ([1]; non-valvular AF, deep vein thrombosis and pulmonary embolism): noninferior | total radioactive dose detected in faeces ([2]; healthy subjects): 62% | total radioactive dose detected in urine ([2]; healthy subjects): 35% | unchanged edoxaban in faeces, share of total administered radioactive dose [2]: 49% | unchanged edoxaban in urine, share of total administered radioactive dose [2]: 24% | ex vivo thrombus formation under high and low shear rates [3]: markedly reduced | effect on prolongation of bleeding time ([4]; coadministration of edoxaban and low-dose (100 mg) or high-dose aspirin (325 mg)): additive effect | increase in bleeding time vs naproxen alone ([4]; coadministration of edoxaban with naproxen, 90 % CI 98.1–151.0): 22% | in vitro total plasma protein binding [5]: about 55% | pharmacokinetic parameters vs continual treatment with edoxaban ([6]; 60 mg on day 4 after rivaroxaban 20 mg once daily for 3 days): similar | pharmacokinetic parameters vs 4 days of continual edoxaban ([6]; 60 mg single dose after dabigatran 150 mg twice daily for 3 days): similar | anticoagulant effects (anti-FXa, PT, aPTT, ETP) vs 4 days of continual edoxaban ([6]; after switching from rivaroxaban): similar | PT and anti-FXa activities, switched from dabigatran vs continuous edoxaban [6]: not different | aPTT and ETP after switching from dabigatran [6]: carryover effect | effect of warfarin on the pharmacokinetics of edoxaban ([6]; switching 24 h after cessation of warfarin): no effect | time to peak elevation of PT and aPTT [7, 21]: ≤ 2 h | time to return of PT and aPTT to near-baseline levels [7, 21]: ≤ 24 h | time to peak effects on anticoagulation markers (anti-FXa, PT, aPTT) ([7]; oral administration): 1 to 2 h | time to maximum effect on plasma anti-FXa activity ([7]; single dose 10–150 mg, healthy subjects): 1 to 2 h | IC50 (OATP1B3): ≥ 50 µM | IC50 (OATP1B1): ≥ 50 µM | induction of gene expression of CYP1A2 (CYP1A2): do not induce | IC50 (OCT1): ≥ 100 µM | effect on PT, INR, aPTT or intrinsic FX activity ([8]; coadministration of low-dose aspirin (100 mg)): did not significantly affect | effect on anti-FXa when both drugs coadministered ([8]; edoxaban 60 mg and subcutaneous enoxaparin 1 mg/kg): additive | solubility [9]: pH dependent | effect of ABCB1 genotype (C3435T) on pharmacokinetics [10]: no effect | induction of gene expression of MDR1 (P-gp) [11]: do not induce | induction of gene expression of CYP3A4 (CYP3A4): do not induce | effect of mild or moderate hepatic impairment on peak or total exposure [12]: did not significantly impact | fraction unbound [13]: ~0.45 | change in QTcI value, one subject ([14]; 90 mg dose group, 10 h postdose): 32 ms | upper bounds of the 95 % one-sided CIs for placebo-corrected QTcI change from time-matched baseline ([14]; 90 and 180 mg, any time point): ≤ 4 ms | effect on cardiac repolarization ([14]; 90 and 180 mg): did not have a threshold pharmacological effect | changes in QTcI, all except one subject ([14]; all time points): below 30 ms | absolute value of QTcI ([14]; any subject, 90 and 180 mg): ≤ 450 ms | IC50 (CYPs): ≥ 100 µM | AUC∞ [15, 22]: 636 ± 152 ng·h/mL | CL/F [15, 22]: 24.8 ± 6.00 L/h | CLR [15, 22]: 7.68 ± 2.57 L/h | AUC∞ [15, 23]: 816 ± 209 ng·h/mL | C max [15, 23]: 115 ± 42.3 ng/mL | CL/F [15, 23]: 19.4 ± 4.69 L/h | CLR [15, 23]: 4.30 ± 1.72 L/h | AUC∞ ([15]; Normal: CLCR >80 mL/min): 453 ± 102 ng·h/mL | CL/F ([15]; Normal: CLCR >80 mL/min): 34.6 ± 7.32 L/h | C max [15, 24]: 91.9 ± 32.8 ng/mL | CL/F [15, 24]: 18.5 ± 4.87 L/h | CLR [15, 24]: 2.12 ± 0.88 L/h | higher total exposure vs normal renal function ([15]; mild renal impairment (CLCR ≥50–≤80 mL/min)): 32% | higher total exposure vs normal renal function ([15]; moderate renal impairment (CLCR ≥30–<50 mL/min)): 74% | higher total exposure vs normal renal function ([15]; severe renal impairment (CLCR <30 mL/min)): 72% | substrate of OAT1 (OAT1 [16]): is not a substrate | time of nadir for shed blood F1+2 and β-thromboglobulin [17]: 1.5 h | IC50 (OAT1 [18]): ≥ 100 µM | fraction absorbed in the colon [19]: approximately 13% | IC50 (OCT2): ≥ 100 µM | IC50 (P-gp): ≥ 50 µM | increase in peak exposure to single doses of edoxaban [20, 25]: 66% | increase in total exposure to single doses of edoxaban [20, 25]: 40% | effect on peak or total exposure to edoxaban ([20]; coadministration of atorvastatin): no effect | increase in peak exposure to single doses of edoxaban [20, 26]: 74% | increase in total exposure to single doses of edoxaban [20, 26]: 73% | increase in edoxaban Cmax ([20]; coadministration of digoxin, steady state): 16% | effect on total exposure or renal clearance at steady state ([20]; coadministration of digoxin): no significant effect | increase in peak exposure to single doses of edoxaban [20, 27]: 46% | increase in total exposure to single doses of edoxaban [20, 27]: 85% | increase in peak exposure to single doses of edoxaban [20, 28]: 68% | increase in total exposure to single doses of edoxaban [20, 28]: 85% | increase in steady-state peak exposure to edoxaban [20, 29]: 34% | increase in steady-state total exposure to edoxaban [20, 29]: 30% | increase in single-dose peak exposure to edoxaban [20, 30]: 89% | increase in single-dose total exposure to edoxaban [20, 30]: 87% | effect on peak and total exposure to edoxaban ([20]; coadministration of naproxen): no effect | increase in 24-h exposure to orally dosed edoxaban [20, 31]: 77% | increase in single-dose peak exposure to orally dosed edoxaban [20, 31]: 85% | increase in 24-h exposure to single doses of edoxaban [20, 32]: 53% | increase in peak exposure to single doses of edoxaban [20, 32]: 53% | increase in exposure to edoxaban (Cmax and AUC) ([20]; concomitant P-gp inhibitor use): less than twofold | decrease in peak exposure to edoxaban ([20]; edoxaban 2 h after esomeprazole at steady state): about 33% | effect on peak and total exposure to edoxaban ([20]; enoxaparin dosed concomitantly or 12 h apart): did not affect | increase in Cmax of edoxaban ([20]; esomeprazole, 2-h stagger at steady state, 90 % CI 57.98–78.07): approximately 33% | effect on total exposure to edoxaban ([20]; esomeprazole, 2-h stagger at steady state, 90 % CI within 80–125 %): no significant effect | effect on peak and total exposure to edoxaban ([20]; esomeprazole, concurrent dosing): no significant effect | increase in peak exposure to intravenous edoxaban ([20]; orally administered quinidine): 7.5% | increase in total exposure to intravenous edoxaban ([20]; orally administered quinidine): 35% | decrease in total edoxaban exposure [20, 33]: about 34% | effect on peak edoxaban exposure [20, 33]: no effect

Reference: publication PMC4875962 (Clinical Pharmacokinetics, 2015)
